Test results published in PubChem BioAssay (NCI).
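Briefly, cells in 96-well plates were exposed to five compound concentrations for 48 h, and endpoints were estimated by linear interpolation. At the TGI there is no net growth.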

Columns and labels:
Test in all cases: inhibition of tumour cell growth, NCI panel, 48 h
786-0 renal = system: 786-0 renal
A498 renal = system: A498 renal
A549 NSCLC = system: A549 NSCLC
ACHN renal = system: ACHN renal
CAKI-1 renal = system: CAKI-1 renal
CCRF-CEM leukemia = system: CCRF-CEM leukemia
COLO 205 colon = system: COLO 205 colon
DLD-1 colon = system: DLD-1 colon
DMS 114 small cell lung = system: DMS 114 small cell lung
DMS 273 small cell lung = system: DMS 273 small cell lung
EKVX NSCLC = system: EKVX NSCLC
HCC-2998 colon = system: HCC-2998 colon
HCT-116 colon = system: HCT-116 colon
HCT-15 colon = system: HCT-15 colon
HL-60(TB) leukemia = system: HL-60(TB) leukemia
HOP-18 NSCLC = system: HOP-18 NSCLC
HOP-62 NSCLC = system: HOP-62 NSCLC
HOP-92 NSCLC = system: HOP-92 NSCLC
HT29 colon = system: HT29 colon
IGROV1 ovarian = system: IGROV1 ovarian
K-562 leukemia = system: K-562 leukemia
KM12 colon = system: KM12 colon
KM20L2 colon = system: KM20L2 colon
LOX IMVI melanoma = system: LOX IMVI melanoma
LXFL 529 NSCLC = system: LXFL 529 NSCLC
M14 melanoma = system: M14 melanoma
M19-MEL melanoma = system: M19-MEL melanoma
MALME-3M melanoma = system: MALME-3M melanoma
MOLT-4 leukemia = system: MOLT-4 leukemia
NCI-H226 lung = system: NCI-H226 lung
NCI-H23 lung = system: NCI-H23 lung
NCI-H460 lung = system: NCI-H460 lung
NCI-H522 lung = system: NCI-H522 lung
OVCAR-3 ovarian = system: OVCAR-3 ovarian
OVCAR-4 ovarian = system: OVCAR-4 ovarian
OVCAR-5 ovarian = system: OVCAR-5 ovarian
OVCAR-8 ovarian = system: OVCAR-8 ovarian
RPMI-8226 leukemia = system: RPMI-8226 leukemia
RXF 393 renal = system: RXF 393 renal
SF-268 CNS = system: SF-268 CNS
SF-295 CNS = system: SF-295 CNS
SF-539 CNS = system: SF-539 CNS
SK-MEL-2 melanoma = system: SK-MEL-2 melanoma
SK-MEL-28 melanoma = system: SK-MEL-28 melanoma
SK-MEL-5 melanoma = system: SK-MEL-5 melanoma
SK-OV-3 ovarian = system: SK-OV-3 ovarian
SN12C renal = system: SN12C renal
SNB-19 CNS = system: SNB-19 CNS
SNB-75 CNS = system: SNB-75 CNS
SNB-78 CNS = system: SNB-78 CNS
SR leukemia = system: SR leukemia
SW-620 colon = system: SW-620 colon
TK-10 renal = system: TK-10 renal
U251 CNS = system: U251 CNS
UACC-257 melanoma = system: UACC-257 melanoma
UACC-62 melanoma = system: UACC-62 melanoma
UO-31 renal = system: UO-31 renal
XF 498 CNS = system: XF 498 CNS

O=c1[nH]cnc(NC2C=C(CO)C(O)C2O)c1[N+](=O)[O-] (stereo not drawn)
TGI (786-0 renal): > 64.3 µM
TGI (A498 renal): > 100 µM
TGI (A549 NSCLC): > 100 µM
TGI (ACHN renal): > 100 µM
TGI (CAKI-1 renal): > 100 µM
TGI (CCRF-CEM leukemia): > 100 µM
TGI (COLO 205 colon): > 100 µM
TGI (DLD-1 colon): > 100 µM
TGI (DMS 114 small cell lung): > 84.7 µM
TGI (DMS 273 small cell lung): > 66.1 µM
TGI (EKVX NSCLC): > 100 µM
TGI (HCC-2998 colon): > 100 µM
TGI (HCT-116 colon): > 53.1 µM
TGI (HCT-15 colon): > 54.7 µM
TGI (HL-60(TB) leukemia): > 51.7 µM
TGI (HOP-18 NSCLC): > 100 µM
TGI (HOP-62 NSCLC): > 100 µM
TGI (HOP-92 NSCLC): > 100 µM
TGI (HT29 colon): > 100 µM
TGI (IGROV1 ovarian): > 100 µM
TGI (K-562 leukemia): > 100 µM
TGI (KM12 colon): > 100 µM
TGI (KM20L2 colon): > 100 µM
TGI (LOX IMVI melanoma): > 59.6 µM
TGI (LXFL 529 NSCLC): > 100 µM
TGI (M14 melanoma): > 100 µM
TGI (M19-MEL melanoma): > 100 µM
TGI (MALME-3M melanoma): > 100 µM
TGI (MOLT-4 leukemia): > 100 µM
TGI (NCI-H226 lung): > 100 µM
TGI (NCI-H23 lung): > 100 µM
TGI (NCI-H460 lung): > 58.2 µM
TGI (NCI-H522 lung): > 100 µM
TGI (OVCAR-3 ovarian): > 100 µM
TGI (OVCAR-4 ovarian): > 100 µM
TGI (OVCAR-5 ovarian): > 100 µM
TGI (OVCAR-8 ovarian): > 100 µM
TGI (RPMI-8226 leukemia): > 71.3 µM
TGI (RXF 393 renal): > 100 µM
TGI (SF-268 CNS): > 100 µM
TGI (SF-295 CNS): > 100 µM
TGI (SF-539 CNS): > 100 µM
TGI (SK-MEL-2 melanoma): > 100 µM
TGI (SK-MEL-28 melanoma): > 100 µM
TGI (SK-MEL-5 melanoma): > 100 µM
TGI (SK-OV-3 ovarian): > 100 µM
TGI (SN12C renal): > 100 µM
TGI (SNB-19 CNS): > 100 µM
TGI (SNB-75 CNS): > 100 µM
TGI (SNB-78 CNS): > 100 µM
TGI (SR leukemia): > 100 µM
TGI (SW-620 colon): > 62 µM
TGI (TK-10 renal): > 100 µM
TGI (U251 CNS): > 100 µM
TGI (UACC-257 melanoma): > 100 µM
TGI (UACC-62 melanoma): > 100 µM
TGI (UO-31 renal): > 100 µM
TGI (XF 498 CNS): > 100 µM
